In publication PMC7284918, “In-Depth Characterization of EpiIntestinal Microtissue as a Model for Intestinal Drug Absorption and Metabolism in Human” (Pharmaceutics, 2020):
Where two headings read alike, the source gives them in different places. Marks after values point to notes of the source that are not given here.

What was measured:
[1] = tested on: EpiIntestinal microtissues; experiment: Intestinal first-pass availability in EpiIntestinal microtissues; format: in vitro ADME, human
Experimental: (§1) Compounds were diluted in culture media to a final concentration of 10 µM and added to the apical (donor) compartment (total volume: 100 µL for EpiIntestinal and 200 µL for Caco-2). After the incubation at 37 °C for 2, 4, 6, and 24 h, samples (50 µL) were taken from the basal (receiver) compartment (total volume: 5000 µL for EpiIntestinal and 800 µL for Caco-2). After the last timepoint, samples from the donor compartments and the cell lysates were also collected. Compound concentrations in the samples were determined by HPLC-MS/MS (Section 2.3).
(§2) GI first-pass availability of the tested compounds was expressed as fraction (%) of the total amount of a compound added to the donor compartment recovered in the receiver compartment.

Caco-2 cells [2] = experiment: Intestinal first-pass availability in Caco-2; format: in vitro ADME, human; conditions: Caco-2
Experimental: as §1, §2

[3] = Clinical pharmacokinetic data and calculated Fa × Fg in human; format: in vivo; conditions: calculated from clinical pharmacokinetic data (Section 2.8, Table 2)
Source text: A set of 12 marketed drugs are selected for the evaluation of EpiIntestinal microtissues.

[4] = Intestinal first-pass availability in EpiIntestinal microtissues; format: in vitro ADME, human; conditions: human, 10 µM apical
Experimental: as §1, §2

[5] = human, cited from earlier work
[6] = tested on: EpiIntestinal microtissues; experiment: Metabolite identification in EpiIntestinal microtissues; format: in vitro ADME, human; conditions: 10 µM, peak areas at end of incubation
Experimental: (§3) Raloxifene or ezetimibe (10 µM) in culture media was added to the apical compartment of EpiIntestinal microtissues or incubated with cryopreserved human intestinal mucosa (HIM). […] Analysis was performed on a LC-MS system containing a Vanquish UPLC (ThermoFisher Scientific, San Jose, CA, USA) coupled to an Orbitrap FusionTribrid high resolution mass spectrometer (ThermoFisher Scientific). Structure elucidation was based on exact mass measurements in combination with the interpretation of fragment spectra.

[7] = tested on: human intestinal mucosa (HIM); experiment: Metabolite identification in cryopreserved human intestinal mucosa (HIM); format: in vitro ADME; conditions: 10 µM, peak areas at end of incubation
Experimental: as §3

[8] = tested on: EpiIntestinal microtissues; experiment: Bidirectional permeability assay in EpiIntestinal microtissues; format: in vitro ADME, human; conditions: Ko-143 3 µM, zosuquidar 5 µM
Experimental: Caco-2 cells were obtained from Leibniz Institute DSMZ-German Collection of Microorganisms and Cell Cultures (Braunschweig, Germany) and cultured in DMEM containing 10% FCS, 1% NEAA, 2 mM Glutamin, 100 U/mL Penicillin and 100 µg/mL Streptomycin. […] EpiIntestinal microtissues were obtained from MatTek (Bratislav, Slovakia) and cultured according to the manufacturer’s instruction (24-well format for bidirectional permeability assays and GI firstpass availability assays and 96-well format for screening of DME activities).
Bidirectional permeability assays were performed as described previously. […] In indicated experiments, inhibitors were added to both compartments. Cells were incubated with the compounds for up to 2 h. Samples from the opposite compartment were taken at different timepoints. […] Prior to bioanalysis samples were spiked with internal standard solution and diluted with acetonitrile (ACN) for protein precipitation. Measurement was operated in multiple reaction monitoring (MRM) mode. Quantification was performed using external calibration. Apparent permeability coefficients in the apical to basal direction (Papp,AB) and in the basal to apical direction (Papp,BA) and efflux were calculated as follows Papp,AB=QAB/(C0×s×t) Papp,BA=QBA/(C0×s×t) Efflux=Papp,BA/Papp,AB where Q is the amount of compound recovered in the receiver compartment after the incubation time t, C0 the initial compound concentration given to the donor compartment, and s the surface area of the Transwell inserts. Efflux ratio is calculated as the quotient of Papp,BA to Papp,AB. […] In addition, Transepithelial electrical resistance (TEER) values are measured for each plate before the permeability assay and total recovery in donor and receiver compartments was determined for each compound. All these parameters (efflux of apafant, Papp values of the low permeable compound, TEER values, and total recovery) are used to ensure the quality of the assays.

Caco-2 cells [9] = experiment: Bidirectional permeability assay in Caco-2; format: in vitro ADME, human; conditions: Ko-143 3 µM, zosuquidar 5 µM
in vitro = conditions: human, plasma
Source text: Blood CLb can be converted from plasma clearance CLp with the blood-to-plasma ratio RB: CLb=CLp/RB

CYP3A4 = conditions: Caco-2
Experimental: (§4) For measurements of DME activities in EpiIntestinal microtissues and Caco-2 cells, both were cultured in 96-well Transwell inserts. Drugs (Table 1) were dissolved in the respective solvent at 200x concentration and diluted in a pre-warmed transport buffer. Diluted substrate solution was applied to the apical (100 µL) and basal (250 µL) compartment of the Transwell and incubated at 37 °C and 5% CO2 and 60 rpm continuous shaking. DME activities were determined by monitoring metabolite formation in basal compartment over time (0, 0.5, 1, 2, 3 and 4 h) with LC-MS/MS. […] Chromatographic separation of samples was performed on YMC Triart C18 (1.9 µm, 30 × 2 mm; YMC Europe, Dinslaken, Germany) LC analytical column. Quantification of all metabolites listed in Table 1 was achieved by the use of calibration curves for the individual metabolites with appropriate concentration ranges.
(§5) A total of 10 µL of the incubation sample were diluted with 90 µL of water containing 10–20% ACN or methanol, 0.1% formic acid and the respective internal standard. To analyze the intracellular metabolite concentration, cells on Transwell inserts were washed twice with ice-cold PBS and stored at −80 °C for 20 min. Afterwards, 150 µL 50% ACN diluted with transport buffer was added to the cells and incubated at room temperature for 30 min. Cell lysate was transferred to a fresh 96-well plate and centrifuged at 4 °C, 4000 rpm for 10 min. Subsequently, 10 µL of the supernatant were diluted with 90 µl water containing 10–20% ACN or methanol, 0.1% formic acid and the respective internal standard. A total of 2 µL sample was injected into the LC-MS/MS system operated with an electrospray ionization source.

[10] = Intestinal first-pass availability in Caco-2; format: in vitro ADME, human; conditions: human, Caco-2, Caco-2, 10 µM apical, read-out: Recovery in basal/receiver compartment after 24 h
Experimental: as §1, §2

CYP1A2 [11] = biological target: T1, CYP1A2 (Homo sapiens, UniProt P05177)
T1 sequence (P05177 1-516): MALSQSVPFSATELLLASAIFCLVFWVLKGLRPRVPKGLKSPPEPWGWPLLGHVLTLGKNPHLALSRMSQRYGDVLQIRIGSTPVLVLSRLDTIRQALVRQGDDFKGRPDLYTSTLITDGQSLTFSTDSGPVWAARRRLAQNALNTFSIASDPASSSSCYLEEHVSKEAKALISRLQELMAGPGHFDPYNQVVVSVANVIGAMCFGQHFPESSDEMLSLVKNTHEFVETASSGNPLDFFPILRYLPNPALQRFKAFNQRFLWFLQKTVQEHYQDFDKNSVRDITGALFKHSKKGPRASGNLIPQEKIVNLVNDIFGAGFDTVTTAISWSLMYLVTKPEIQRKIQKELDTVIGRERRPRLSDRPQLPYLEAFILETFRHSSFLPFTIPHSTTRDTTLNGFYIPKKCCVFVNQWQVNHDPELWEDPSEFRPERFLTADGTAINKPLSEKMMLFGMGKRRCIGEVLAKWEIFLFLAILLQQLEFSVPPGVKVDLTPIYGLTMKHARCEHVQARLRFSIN
Experimental: as §4, §5

CYP1A2 [12] = biological target: T1, CYP1A2; remark: listed apart in the source
Experimental: as §4
A total of 10 µL of the incubation sample were diluted with 90 µL of water containing 10–20% ACN or methanol, 0.1% formic acid and the respective internal standard. To analyze the intracellular metabolite concentration, cells on Transwell inserts were washed twice with ice-cold PBS and stored at −80 °C for 20 min. Afterwards, 150 µL 50% ACN diluted with transport buffer was added to the cells and incubated at room temperature for 30 min. […]

[13] = EpiIntestinal microtissues, GI firstpass availability, read-out: Recovery in Basal Comp. @ 24h (%)
[14] = clinical, ref Prescription information at fda.gov

COc1ccc(CCN2CCC(Nc3nc4ccccc4n3Cc3ccc(F)cc3)CC2)cc1 [Astemizole]
Availability in the receiver compartment on co-incubation with CYP2J2 inhibitor ([1]; 10 µM apical, Ebastein (50 µM)): increased | Availability in the receiver compartment on co-incubation with CYP2J2 inhibitor (Caco-2 cells [2]; 10 µM apical, Ebastein (50 µM)): increased

CC(C)NCC(O)COc1ccc(CC(N)=O)cc1 (centres unmarked) [Atenolol]
Fa × Fg in Human (%) [3]: 50% | recovery at 24 h, 10 µM [4, 13]: 86%

CC(C)c1c(C(=O)Nc2ccccc2)c(-c2ccccc2)c(-c2ccc(F)cc2)n1CC[C@@H](O)C[C@@H](O)CC(=O)O [Atorvastatin]
recovery at 24 h, 10 µM [4, 13]: 43%

O=C1CC2(CCCC2)CC(=O)N1CCCCN1CCN(c2ncccn2)CC1 [Buspirone]
Fa × Fg in Human (%) [3]: 70% | CLp (plasma clearance) ([5]; clinical): 28.3 [8] mL/min/kg | fe (fraction of renal excretion) ([5]; clinical): 0.45 [19] | recovery at 24 h, 10 µM [4, 13]: 60%

O=C1[C@H](CC[C@H](O)c2ccc(F)cc2)[C@@H](c2ccc(O)cc2)N1c1ccc(F)cc1 [Ezetimibe]
Parent (% of parent drug at T0) [6]: 8.4 % of parent drug at T0 | Parent (% of parent drug at T0) [7]: 40.3 % of parent drug at T0

CCOC(=O)C1=C(C)NC(C)=C(C(=O)OC)C1c1cccc(Cl)c1Cl (centres unmarked) [Felodipine]
recovery at 24 h, 10 µM [4, 13]: 47%

CC(C)(C)NC(=O)[C@@H]1CN(Cc2cccnc2)CCN1C[C@@H](O)C[C@@H](Cc1ccccc1)C(=O)N[C@H]1c2ccccc2C[C@H]1O [Indinavir]
Fa × Fg in Human (%) [3]: 100% | F (total oral availability) ([5]; clinical): 0.6 [8] | fe (fraction of renal excretion) ([5]; clinical): 0.085 [16] | recovery at 24 h, 10 µM [4, 13]: 53%

CCc1c2c(nc3ccc(OC(=O)N4CCC(N5CCCCC5)CC4)cc13)-c1cc3c(c(=O)n1C2)COC(=O)[C@]3(O)CC [Irinotecan]
recovery at 24 h, 10 µM [4, 13]: 62%

COc1ccc2c3c([nH]c2c1)[C@H](CC(C)C)N1C(=O)[C@H](CCC(=O)OC(C)(C)C)NC(=O)[C@@H]1C3 [Ko-143]
Effect of inhibitor on the efflux of rosuvastatin [8]: strongly reduced | Effect of inhibitor on the efflux of rosuvastatin (Caco-2 cells [9]): strongly reduced

Cc1ncc2n1-c1ccc(Cl)cc1C(c1ccccc1F)=NC2 [Midazolam]
blood plasma ratio (in vitro): 0.64 | Fa × Fg in Human (%) [3]: 59% | F (total oral availability) ([5]; clinical): 0.4 [8] | fe (fraction of renal excretion) ([5]; clinical): 0 [16] | Intracellular Metabolite (% of Total) (CYP3A4; CYP3A4/Midazolam, metabolite 1-OH-Midazolam): BLQ | Enzyme Activities Mean/SD (CYP3A4; CYP3A4/Midazolam, rate of 1-OH-Midazolam formation in supernatant): BLQ | 1-hydroxymidazolam (CYP3A4-selective metabolite) detected ([1]; midazolam 10 µM apical, no inhibitor): substantial amount | recovery at 24 h, 10 µM ([4]; with CYP3A4 inhibitor CYP3cide (1 µM), read-out: Recovery in basal/receiver compartment after 24 h): 75.9% | recovery at 24 h, 10 µM [4, 13]: 47% | recovery at 24 h, 10 µM ([4]; EpiIntestinal microtissues, no inhibitor, read-out: Recovery in basal/receiver compartment after 24 h): 46.7% | 1-hydroxymidazolam (CYP3A4-selective metabolite) detected (Caco-2 cells [2]; midazolam 10 µM apical): negligible amount | recovery at 24 h, 10 µM ([10]; no inhibitor): 81% | recovery at 24 h, 10 µM ([10]; with CYP3A4 inhibitor CYP3cide (1 µM)): 87.9%

COC(=O)C1=C(C)NC(C)=C(C(=O)OC)C1c1ccccc1[N+](=O)[O-] [Nifedipine]
fe (fraction of renal excretion) ([5]; in vivo): 0 [16]

CCN(CC)CC#CCOC(=O)C(O)(c1ccccc1)C1CCCCC1 (centres unmarked) [Oxybutynin]
Fa × Fg in Human (%) [3]: 9% | F (total oral availability) ([5]; clinical): 0.06 [8] | fe (fraction of renal excretion) [5, 14]: 0 * | CLp (plasma clearance) ([5]; in vivo): 5.1 [15] mL/min/kg

CCOc1ccc(NC(C)=O)cc1 [Phenacetin]
Intracellular Metabolite (% of Total) (CYP1A2 [11]): BLQ | Enzyme Activities Mean/SD (CYP1A2 [11]; human): 123.1/4.8 pmol/h/cm^2 | Intracellular Metabolite (% of Total) (CYP1A2 [12]): BLQ | Enzyme Activities Mean/SD (CYP1A2 [12]; human): 17.4/3.0 pmol/h/cm^2

O=C(c1ccc(OCCN2CCCCC2)cc1)c1c(-c2ccc(O)cc2)sc2cc(O)ccc12 [Raloxifene]
Parent (% of parent drug at T0) [6]: 2.4 % of parent drug at T0 | Parent (% of parent drug at T0) [7]: 33.2 % of parent drug at T0

CC(C)(C)NC(=O)[C@@H]1C[C@@H]2CCCC[C@@H]2CN1C[C@@H](O)[C@H](Cc1ccccc1)NC(=O)[C@H](CC(N)=O)NC(=O)c1ccc2ccccc2n1 [Saquinavir]
Fa × Fg in Human (%) [3]: 25% | F (total oral availability) ([5]; clinical): 0.04 [8] | fe (fraction of renal excretion) [5, 14]: 0.01 * | recovery at 24 h, 10 µM [4, 13]: 18%

C[C@]12CC[C@H]3[C@@H](CCC4=CC(=O)CC[C@@]43C)[C@@H]1CC[C@@H]2O [Testosterone]
Intracellular Metabolite (% of Total) (CYP3A4; CYP3A4/Testosterone, metabolite 6β-OH-Testosterone): BLQ

O[C@@H](COc1cccc2ncccc12)CN1CCN([C@@H]2c3ccccc3[C@@H]3[C@H](c4ccccc42)C3(F)F)CC1 [zosuquidar]
Effect of inhibitor on the efflux of rosuvastatin [8]: minor effect | Effect of inhibitor on the efflux of rosuvastatin (Caco-2 cells [9]): minor effect
